In patent US11986542B2, “Composition for enhancing hair fiber properties” (The Procter & Gamble Company, priority 2016, dated 2024):

Assays:
[1] = Log P (octanol-water partition coefficient)
Description: “Log P” means octanol-water partition coefficient and is a physical property that describes a chemical's lipophilic and hydrophophilic characteristics. Log P is the logarithm of the ratio of a chemical's concentration in the octanol phase to its concentration in the aqueous phase of a two-phase system at equilibrium. The partition coefficient is a ratio of concentrations of un-ionized compound between the two solutions. Log P=Log 10 (partition coefficient). Partition coefficient=[organic]/[aqueous], where [organic] is the concentration of the compound of interest in the organic solvent (e.g., octanol), and [aqueous] is the concentration of the compound of interest in the water phase.

[2] = Combing force for dry hair, aqueous/ethanol leave-on treatment; settings: Table 2/FIG. 2; physically damaged virgin hair; aqueous/ethanol leave-on formulation, 2.5% total conditioning agent
Description: (§1) This double combing apparatus is attached to an Instron Model 5564. The switch is combed 5 times with a fine-tooth comb and hanged onto the Instron load cell. Then, the hair switch is placed in the double comb apparatus. The Instron pulls the hair vertically at a rate of 10 mm/min until the hair switch clears the final comb. The peak force as the switch passes through the top comb is reported.

[3] = Combing force for dry hair, aqueous/ethanol treatment; settings: Table 1/FIG. 1; moderately oxidatively-damaged hair; aqueous/ethanol formulation, 2.5% total conditioning agent; peak force
Description: A moderately oxidatively-damaged hair switch or physically damaged virgin hair switch (with weight of 4 gram and length of 8 inches) is placed in an apparatus containing two combs separated by a vertical distance of 6 inches. This double combing apparatus is attached to an Instron Model 5564. The switch is combed 5 times with a fine-tooth comb and hanged onto the Instron load cell. Then, the hair switch is placed in the double comb apparatus. The Instron pulls the hair vertically at a rate of 10 mm/min until the hair switch clears the final comb. The peak force as the switch passes through the top comb is reported. […] EtOH/H2O Leave-on Treatments Single material mixtures: 500 mg of a lipid or a lipid enhancing agent is weighed into a 20 mL vial. 19.5 g of 50/50(v/v) ethanol water mixture is then added to the vial and capped. The mixture is then agitated for 30 seconds. Shampoo Washing Protocol: An amount of 0.10 g of clarifying shampoo per gram of hair is spread via a syringe onto separate hair switch. Each application consists of adding shampoo to the hair, milking for 30 seconds followed by rinsing for 30 seconds. Shampoo is then reapplied (0.[…]), milked for 30 seconds and rinsed for 30 seconds. Leave-on Treatments with Aqueous/Ethanolic Lipid Compositions a. […] The combing force is measured for each switch and an average for the three switches is calculated. […]

[4] = Combing force after leave-on hair treatment using neat material; settings: 0.4 ml neat material on 4 g switch, average of three switches; for Combing force, 1 Wash (gf): after 1 clarifying shampoo wash; for Combing force, 5 Washes (gf): after 5 clarifying shampoo washes
Description: as §1
The treatment is repeated to two additional switches. The treated hair switches are allowed to rest for 24 hours under controlled temperature and relative humidity conditions (27° C. and 50% RH). After this time period, each hair switch is washed with a clarifying shampoo (see shampoo washing protocol below) and allowed to air dry for 24 hours under controlled temperature and relative humidity conditions (27° C. and 50% RH). The combing force is measured for each switch and an average for the three switches is calculated. […] Linoleic acid • b.

| Compound | logP ([1]; octanol/water) | Combing Force (gf) [2] [gf] | further results |
| --- | --- | --- | --- |
| CCCCCCCC/C=C\CCCCCCCCCCCC(=O)O [Erucic acid, reference compound] | 9 | – | – |
| CCCCCCCC/C=C\CCCCCCCC(=O)OCCO [Ethyleneglycol monooleate] | 6.9 | – | – |
| CCCCCCCC/C=C\CCCCCCCC(=O)OCC(O)CO (stereo not drawn) [Glyceryl alpha-monooleate] | 6.3 | 268 | Combing Force (gf) [3]: 157 gf |
| CCCCC/C=C\C/C=C\CCCCCCCC(=O)O [Linoleic Acid, reference compound] | 6.4 | – | Combing force, 1 Wash (gf) [4]: 27 gf; Combing force, 5 Washes (gf) [4]: 96 gf |
| CCCCCCCC/C=C\CCCCCCCC(=O)OC [Methyl Oleate, reference compound] | 8 | – | – |
| CCCCCCCC/C=C\CCCCCCCC(=O)O [Oleic acid] | 7 | – | Combing force, 1 Wash (gf) [4]: 24 gf; Combing force, 5 Washes (gf) [4]: 58 gf; Combing Force (gf) [3]: 161 gf |
| CCCCCCCC/C=C\CCCCCCCCO [Oleyl Alcohol] | 7 | 246 | – |
| CCCCCC/C=C\CCCCCCCC(=O)O [Palmitoleic Acid] | 6.6 | 76 | – |
| CCCCCCCCCCCCCCCCCC(=O)O [Stearic Acid, reference compound] | 8 | – | – |
| Propyleneglycol monooleate [reference compound] | – | – | logP ([1]; Table 3): 7.5 |
